Experimental data as given in patent US20260174874A1, “INSULIN DERIVATIVES” (USTAV ORGANICKE CHEMIE A BIOCHEMIE AKADEMIE VED CR, V. V. I., priority 2022, published 2026).
Where “and” joins values, the source holds several entries; their conditions need not be identical. Equal entries are not always repeated. Where two headings read alike, the source gives them in different places. Marks after values point to notes of the source that are not given here.

Experiments:
IR-A = IR-A (Homo sapiens, UniProt P06213); settings: published; (Kd of native hormone/Kd of derivative) × 100; cited from earlier work
Chain of IR-A (P06213 28-1370 isoform P06213-2 limits assumed): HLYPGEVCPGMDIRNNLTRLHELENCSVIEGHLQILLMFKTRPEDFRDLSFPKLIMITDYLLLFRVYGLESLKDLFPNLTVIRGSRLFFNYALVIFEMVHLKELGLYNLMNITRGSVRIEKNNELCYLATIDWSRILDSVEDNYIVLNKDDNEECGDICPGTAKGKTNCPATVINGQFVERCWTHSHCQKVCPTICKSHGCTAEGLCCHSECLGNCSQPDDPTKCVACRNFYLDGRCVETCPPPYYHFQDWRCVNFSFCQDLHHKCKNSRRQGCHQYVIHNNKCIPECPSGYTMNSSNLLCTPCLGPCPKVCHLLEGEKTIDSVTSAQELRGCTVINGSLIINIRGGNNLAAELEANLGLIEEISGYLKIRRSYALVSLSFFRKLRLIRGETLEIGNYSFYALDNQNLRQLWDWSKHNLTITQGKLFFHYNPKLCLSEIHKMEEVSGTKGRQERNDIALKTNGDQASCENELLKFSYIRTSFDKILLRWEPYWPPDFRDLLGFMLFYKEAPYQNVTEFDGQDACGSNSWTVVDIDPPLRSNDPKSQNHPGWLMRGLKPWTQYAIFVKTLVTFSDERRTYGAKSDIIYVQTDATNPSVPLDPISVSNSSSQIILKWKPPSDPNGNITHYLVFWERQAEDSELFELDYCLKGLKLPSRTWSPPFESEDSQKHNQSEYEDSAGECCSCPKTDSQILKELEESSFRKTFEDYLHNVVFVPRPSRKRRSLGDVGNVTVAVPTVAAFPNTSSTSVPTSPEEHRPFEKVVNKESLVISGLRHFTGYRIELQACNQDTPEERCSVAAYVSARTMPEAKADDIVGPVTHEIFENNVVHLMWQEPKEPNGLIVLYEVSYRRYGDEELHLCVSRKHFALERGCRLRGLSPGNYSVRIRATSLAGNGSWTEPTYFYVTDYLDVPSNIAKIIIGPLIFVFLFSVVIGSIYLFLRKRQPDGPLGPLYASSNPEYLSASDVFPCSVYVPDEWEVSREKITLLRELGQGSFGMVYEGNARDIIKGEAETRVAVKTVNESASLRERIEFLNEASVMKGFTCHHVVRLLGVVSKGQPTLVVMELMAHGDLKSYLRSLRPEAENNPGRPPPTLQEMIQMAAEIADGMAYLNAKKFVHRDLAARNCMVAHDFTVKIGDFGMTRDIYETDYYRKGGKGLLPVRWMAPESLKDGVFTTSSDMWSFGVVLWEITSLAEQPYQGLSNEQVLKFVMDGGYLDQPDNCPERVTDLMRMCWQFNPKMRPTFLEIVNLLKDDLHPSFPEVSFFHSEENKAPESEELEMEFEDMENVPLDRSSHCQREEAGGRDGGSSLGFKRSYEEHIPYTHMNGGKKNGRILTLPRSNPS
Chain of IR-A (P06213 763-1382 limits assumed): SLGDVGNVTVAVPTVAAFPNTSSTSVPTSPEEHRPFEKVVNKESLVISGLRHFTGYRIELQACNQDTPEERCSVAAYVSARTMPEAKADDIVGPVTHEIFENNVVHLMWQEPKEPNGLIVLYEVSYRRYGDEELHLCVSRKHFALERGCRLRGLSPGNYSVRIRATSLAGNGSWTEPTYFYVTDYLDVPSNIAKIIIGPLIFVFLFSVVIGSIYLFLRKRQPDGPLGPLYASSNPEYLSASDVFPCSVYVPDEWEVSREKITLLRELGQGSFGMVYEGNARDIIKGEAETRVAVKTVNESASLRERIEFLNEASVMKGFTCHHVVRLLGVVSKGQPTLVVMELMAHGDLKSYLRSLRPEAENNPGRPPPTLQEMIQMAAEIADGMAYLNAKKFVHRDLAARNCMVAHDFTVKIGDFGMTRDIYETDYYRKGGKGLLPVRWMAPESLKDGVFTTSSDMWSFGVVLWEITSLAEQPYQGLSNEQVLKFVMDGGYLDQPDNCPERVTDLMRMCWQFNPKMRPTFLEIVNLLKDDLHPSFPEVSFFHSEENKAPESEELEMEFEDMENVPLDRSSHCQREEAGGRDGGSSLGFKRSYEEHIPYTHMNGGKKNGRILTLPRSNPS

SH-SY5Y cells = assay: Protection of SH-SY5Y cells against methylglyoxal toxicity (MTT assay); assay type: cell-based; settings: methylglyoxal 1.5 mmol·l-1, SY5Y cells
IGF-1R [1] = target: T1, IGF-1R (Homo sapiens, UniProt P08069); settings: cited from earlier work
IR-B = IR-B (Homo sapiens, UniProt P06213); settings: published; (Kd of native hormone/Kd of derivative) × 100; cited from earlier work
Chain of IR-B (P06213 28-758 limits assumed): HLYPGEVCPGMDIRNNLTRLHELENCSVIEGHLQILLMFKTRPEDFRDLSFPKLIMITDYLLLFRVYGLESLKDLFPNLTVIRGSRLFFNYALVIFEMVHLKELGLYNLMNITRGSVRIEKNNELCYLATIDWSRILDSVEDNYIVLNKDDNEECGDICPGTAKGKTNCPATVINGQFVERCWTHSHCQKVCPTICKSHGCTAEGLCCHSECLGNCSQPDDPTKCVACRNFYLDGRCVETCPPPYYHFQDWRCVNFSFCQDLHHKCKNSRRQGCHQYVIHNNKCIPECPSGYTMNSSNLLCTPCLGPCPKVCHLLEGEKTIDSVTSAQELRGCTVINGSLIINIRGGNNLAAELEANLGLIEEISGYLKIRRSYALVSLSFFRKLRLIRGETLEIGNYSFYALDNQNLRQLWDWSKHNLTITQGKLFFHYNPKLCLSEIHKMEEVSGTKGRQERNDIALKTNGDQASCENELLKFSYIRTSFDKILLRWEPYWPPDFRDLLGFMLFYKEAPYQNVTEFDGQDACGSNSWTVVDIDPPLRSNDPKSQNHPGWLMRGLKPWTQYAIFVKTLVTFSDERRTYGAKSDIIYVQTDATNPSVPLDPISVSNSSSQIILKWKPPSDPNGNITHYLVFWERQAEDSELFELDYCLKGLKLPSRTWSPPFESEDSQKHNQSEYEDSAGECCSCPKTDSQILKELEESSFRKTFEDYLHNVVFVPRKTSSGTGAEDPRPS
Chain of IR-B (P06213 763-1382 limits assumed): as the sequence (P06213 763-1382 limits assumed) above

IGF-1R [2] = target: T1, IGF-1R; assay: competition with 125I-IGF-1 on mouse fibroblasts transfected with human IGF-1R; relative to human insulin
[3] = published, (Kd of native hormone/Kd of derivative) × 100

Chain of IN-ML-15 (GluB10, D-HisB24, GlyB31, TyrB32-insulin) (ligand) (chain): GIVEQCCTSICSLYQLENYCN
Chain of IN-ML-15 (GluB10, D-HisB24, GlyB31, TyrB32-insulin) (ligand) (chain): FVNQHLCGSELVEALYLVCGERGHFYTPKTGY

Compound	Relative binding affinity for IR-A (%) (IR-A)	Relative binding affinity for IGF-1R (%) (IGF-1R [1]; [3])	Relative binding affinity for IR-B (%) (IR-B)	also measured
D-PheB24-insulin	180	–	–	–
CC(=O)C=O [Methylglyoxal, methylglyoxal]	–	–	–	amount of cells grown in the wells compared with the control (SH-SY5Y cells): 50-60%
D-HisB24, GlyB31, TyrB32-insulin	251	12% and 12.4%	338	–
AspB10-insulin	206	–	–	Relative binding affinity for IGF-1R (%) (IGF-1R [1]; Converted from Schaffer data): 0.2* %
IN-ML-15 (GluB10, D-HisB24, GlyB31, TyrB32-insulin) (ligand)	–	–	–	times more potent than insulin (IGF-1R [2]): 790 times
D-HisB24-insulin	280	1.0%	250	–
D-AlaB24-insulin	150	–	–	–
GluB10-insulin	407	–	–	–
D-ProB24-insulin	1.3	–	–	–
GlyB31, TyrB32-insulin	162	0.27%	310	–
